Measurements: patent publication US20250179022A1, “COMPOUND USED AS TYK2 INHIBITOR, PREPARATION METHOD THEREFOR, AND PHARMACEUTICAL USE THEREOF” (SHANGHAI ZHIGEN PHARMACEUTICAL & TECHNOLOGY CO. LTD., priority 2022, published 2025)
Values after ≈ are worked out from the molar mass of the structure shown. Read-outs that look alike come from different tables or passages of the source. Each block holds one molecule with its values, some of them ahead of it.

Legend:
[1] = dogs, 2 mg/kg, literature values; cited from earlier work
JAK2 = target: T1, JAK2 (Homo sapiens, UniProt O60674, cells depend on it, form not given); experiment: JAK family kinase selectivity assay, Ba/F3-TEL-JAK2 cell proliferation; type: cell-based; conditions: read-out: Ba/F3 Cell IC50 JAK2; Ba/F3-TEL-JAK2, 72 h
T1 construct: fused on or other part: N-terminal part of TEL (ETV6) as oligomerising partner; it is the second protein of the fusion and part of the key; P41212 (Transcription factor ETV6)
Excerpt: (§1) There are four kinases in the JAK family, respectively TYK2, JAK1, JAK2 and JAK3. JAK family kinase genes were introduced into the wild-type murine B lymphocytes (BaF3), and four BaF3 engineered cell lines were constructed respectively (Ba/F3-FL-TYK2-E957D, Ba/F3-TEL-JAK1, Ba/F3-TEL-JAK2, Ba/F3-TEL-JAK3). The growth and proliferation of these engineered cell lines were not dependent on IL-3, but on exogenously transferred JAK family kinases.
(§2) In this experiment, the inhibitory effects of the compounds on the proliferation of four cell types, Ba/F3-FL-TYK2-E957D, Ba/F3-TEL-JAK1, Ba/F3-TEL-JAK2, and Ba/F3-TEL-JAK3 were tested, and apoptosis was detected, and the IC50 values were calculated. The inhibitory activities of the compounds against TYK2, JAK1, JAK2, and JAK3 kinases were evaluated based on the IC50 value, thus assessing the JAK family kinase selectivity of the compounds.
(§3) The tested compounds, powder and stored at room temperature, were prepared into 10 mM stock solution with DMSO and stored at −20° C. away from light for use.
(§4) Compounds were formulated into dilute solutions which was 1000 times of the final concentration. The compound was prepared into 20-times of final concentration by diluting the compound with culture medium. 2 ul of 1000-times compound was added per well to 98 ul of culture medium.
(§5) Cells (provided by Sundia Pharmaceutical Technology (Shanghai) Co., Ltd.) were resuspended and counted using an automated cell counter. The cell suspension was diluted to the desired density based on BaF3 seeding density of 2000 cells per well. Each well was plated with 95 ul of cells and incubated at 37° C. for stable equilibrium. […]
(§6) The cell plate was equilibrated to room temperature. […] Detected with SpectraMax Paradigm.
(§7) • (1) IC50 was calculated using GraphPad Prism 5. • (2) % Inh=(Max signal-Compound signal)/(Max signal-Min signal)×100. • (3) Max signal was the positive control well with only the same volume of DMSO as the compound. • (4) Min signal was the negative control well with only the culture medium.

[2] = Solubility in water (at pH=7); type: physicochemical
Excerpt: Test Example 6: Solubility of the Compounds of the Invention in Water (at pH=7)

[3] = In vivo pharmacokinetic experiment in rats (oral); set-up: species or system SD rats; conditions: 5 mg/kg
Experimental: Experimental method: Healthy male SD rats were randomly grouped into 3 rats in each group and given the test compound orally. The rats were fasted for 12 h before the gavage experiment, and drank water freely, and were fed uniformly for 4 h after the administration of the compounds. Before (0 h) and 0.25, 0.5, 1.0, 2.0, 4.0, 6.0, 8.0 and 24 h after the administration of the test compounds, 0.2 mL of blood was collected from the jugular vein at the above set time points and placed in EDTA-K2 tubes, and the whole blood was collected and stored temporarily in an ice-water bath, and then centrifuged at 11,000 rpm for 5 min within 30 min, the plasma was separated, and frozen at −70° C. in a refrigerator for testing.

JAK3 = target: T2, JAK3 (Homo sapiens, UniProt P52333, cells depend on it, form not given); experiment: JAK family kinase selectivity assay, Ba/F3-TEL-JAK3 cell proliferation; type: cell-based; conditions: read-out: Ba/F3 Cell IC50 JAK3; Ba/F3-TEL-JAK3, 72 h
T2 construct: fused on or other part: N-terminal part of TEL (ETV6) as oligomerising partner; P41212 (Transcription factor ETV6)
Excerpt: as §1, §2, §3, §4, §5, §6, §7

[4] = system: IFN-α-induced STAT phosphorylation; experiment: IFN-α-induced STAT phosphorylation in human whole blood; type: cell-based; conditions: human whole blood, 20 ng/ml IFN-α, pSTAT5 in CD3-positive cells; read-out: IC50, IFN-α inflammatory pathway (IFN-α-induced STAT phosphorylation)
Excerpt: The cytokine receptor attached to TYK2 mediates the signaling of type 1 interferon (IFN-α), which has been identified as the most important inflammatory factor of the autoimmune system. Human whole blood is induced with IFN-α, and TYK2 from lymphocytes in whole blood triggered STAT phosphorylation, which mediated subsequent inflammatory signaling. Therefore, TYK2 inhibitors have an inhibitory effect on IFN-α signaling, and the stronger the TYK2 inhibitory activity, the lower the level of STAT phosphorylation, and the stronger the corresponding anti-inflammatory effect.
In this experiment, the ability of the compounds to inhibit IFN-α-induced STAT phosphorylation in human whole blood were tested, and the IC50 values were calculated. The anti-inflammatory activity of the compounds was evaluated at the tissue level and evaluation of the inhibitory activity of compounds on the IFN-α inflammatory pathway based on the IC50 value.
The tested compound, powder and stored at room temperature, prepared into 10 mM stock solution with DMSO and stored at −80° C. in the refrigerator.
1× Fix/Lysis solution preparation: 5× Fix/Lysis and ddH2O were diluted according to 1:4 and preheated in 37° C. incubator, waiting for use.
Flow cytometric staining buffer preparation: 1 g of bovine serum albumin (BSA) and 1 mL of EDTA (0.5 M) solution were added to 500 mL of phosphate buffer solution (PBS) and stored at 4° C. in the refrigerator.
Compound dilution solution: 0.5 g of bovine serum albumin (BSA) was added to 500 mL of phosphate buffer solution (PBS), and stored at 4° C. in the refrigerator.
50 μg/mL IFN-alpha was diluted to 400 ng/mL with Compound Diluent and set aside.
67.5 μL of human whole blood was added to a 96-well plate using a 300 μL electric volley gun. 3.5 μL of prepared test compound was added, mixed well and placed in the cell culture incubator. After 60 min incubation, 400 ng/mL IFN-α (Biolegend 592702, final concentration 20 ng/ml) was added. The obtained was mixed well and placed in the cell culture incubator to continue incubation for 15 min.
After cytokine stimulation, 5 ul of PE-CD3 (BD 555333) antibody was added to each well, mixed and incubation was continued at 4° C. in the refrigerator. At the end, whole blood was transferred to a 96-well deep-well plate using a volley gun, pre-warmed 1× Fix/Lysis solution was added, and cells were lysed and fixed for 12 minutes at 37° C. in an incubator. After being washed, 400 μL of Perm III solution was added, vortexed and incubated on ice for 30 minutes. Cells were then stained by 100 μL of APC-pSTAT5 (1:100) antibody for 50 min at room temperature. This was followed by flow-through instrumentation. The expression of pSTAT5 was quantified by median fluorescence intensity after gating the CD3-positive signaling cluster.

TYK2 = target: T3, TYK2 (Homo sapiens, UniProt P29597, E957D); experiment: TYK2 kinase activity inhibition assay (Ba/F3-FL-TYK2-E957D cell proliferation, CellTiter-Glo); type: cell-based; conditions: 72 h
T3 construct: host or cells: Ba/F3 (murine B lymphocytes)
Experimental: The TYK2 kinase gene was introduced into wild-type murine-derived B lymphocytes (BaF3) to construct the Ba/F3-FL-TYK2-E957D stable cell line.
In this experiment, the inhibitory effect of the compounds on the proliferation of Ba/F3-FL-TYK2-E957D cells were tested, apoptosis was detected, and the IC50 value was calculated. The inhibitory activity of the compounds against TYK2 kinase was evaluated based on the IC50 value.
as §3
Compounds were prepared into dilute solutions which was 1000 times of the final concentration. The compound was prepared into 20-times of the final concentration by diluting the compound with culture medium. 2 ul of 1000-times compound was added to per well to 98 ul of culture medium.
Cells (provided by Sundia Pharmaceutical Technology (Shanghai) Co., Ltd.) were resuspended and counted using an automated cell counter. The cell suspension was diluted to the desired density based on BaF3 seeding density of 2000 cells per well. Each well was plated with 95 ul of cells and incubated at 37° C. for stable equilibrium. 5 ul of 20-times compound was added to each well, with the wells to which the same volume of DMSO was added as a control.
The cell plate was equilibrated to room temperature. 40 ul CellTiter-Glo® Reagent was added to each well, shaken for 2 minutes and allowed to stand for 10 minutes. Detected with SpectraMax Paradigm.
• (1) IC50 was calculated using GraphPad Prism 5. • (2) % Inh=(Max signal−Compound signal)/(Max signal−Min signal)×100. • (3) Max signal was the positive control well with only the same volume of DMSO as the compound. • (4) Min signal was the negative control well with only the culture medium.

T3 sequence (P29597 whole entry E957D): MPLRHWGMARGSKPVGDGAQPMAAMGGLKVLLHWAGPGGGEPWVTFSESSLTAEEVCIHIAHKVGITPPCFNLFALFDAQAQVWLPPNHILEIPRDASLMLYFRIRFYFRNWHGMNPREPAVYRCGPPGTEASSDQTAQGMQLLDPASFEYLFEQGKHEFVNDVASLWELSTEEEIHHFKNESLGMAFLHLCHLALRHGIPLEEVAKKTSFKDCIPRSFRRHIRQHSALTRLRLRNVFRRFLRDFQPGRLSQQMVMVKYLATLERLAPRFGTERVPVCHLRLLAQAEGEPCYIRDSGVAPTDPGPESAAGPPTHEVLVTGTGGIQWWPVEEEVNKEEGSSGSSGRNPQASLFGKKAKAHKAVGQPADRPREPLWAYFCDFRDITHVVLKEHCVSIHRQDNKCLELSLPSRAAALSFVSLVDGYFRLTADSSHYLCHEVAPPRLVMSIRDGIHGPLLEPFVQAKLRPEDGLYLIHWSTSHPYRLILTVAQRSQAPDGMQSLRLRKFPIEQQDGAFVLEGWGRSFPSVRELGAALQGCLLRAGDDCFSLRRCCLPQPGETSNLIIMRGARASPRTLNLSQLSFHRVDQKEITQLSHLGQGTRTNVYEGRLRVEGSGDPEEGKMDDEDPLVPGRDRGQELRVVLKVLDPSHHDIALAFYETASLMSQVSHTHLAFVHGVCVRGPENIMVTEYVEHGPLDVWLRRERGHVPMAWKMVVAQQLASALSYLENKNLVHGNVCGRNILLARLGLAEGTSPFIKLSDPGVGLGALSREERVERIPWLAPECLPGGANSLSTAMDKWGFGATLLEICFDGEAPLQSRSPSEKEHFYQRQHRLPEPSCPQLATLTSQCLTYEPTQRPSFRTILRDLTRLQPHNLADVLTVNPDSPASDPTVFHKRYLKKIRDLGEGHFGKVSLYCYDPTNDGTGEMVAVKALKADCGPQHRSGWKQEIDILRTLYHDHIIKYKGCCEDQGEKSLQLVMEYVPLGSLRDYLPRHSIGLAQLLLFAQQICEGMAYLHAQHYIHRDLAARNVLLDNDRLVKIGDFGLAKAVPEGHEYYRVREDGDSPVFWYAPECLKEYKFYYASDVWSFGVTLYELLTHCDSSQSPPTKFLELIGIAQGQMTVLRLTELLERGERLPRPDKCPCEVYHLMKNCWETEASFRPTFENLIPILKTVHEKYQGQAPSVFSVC
T1 sequence (O60674 849-1132 limits assumed, change not shown): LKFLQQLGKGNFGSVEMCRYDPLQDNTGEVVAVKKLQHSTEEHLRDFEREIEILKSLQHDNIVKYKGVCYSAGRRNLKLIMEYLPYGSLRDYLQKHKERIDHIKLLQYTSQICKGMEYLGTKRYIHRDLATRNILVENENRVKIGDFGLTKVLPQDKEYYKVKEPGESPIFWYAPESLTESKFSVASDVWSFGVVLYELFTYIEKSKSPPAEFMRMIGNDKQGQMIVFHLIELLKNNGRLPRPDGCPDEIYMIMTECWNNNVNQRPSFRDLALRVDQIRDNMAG
T2 sequence (P52333 822-1111 limits assumed, change not shown): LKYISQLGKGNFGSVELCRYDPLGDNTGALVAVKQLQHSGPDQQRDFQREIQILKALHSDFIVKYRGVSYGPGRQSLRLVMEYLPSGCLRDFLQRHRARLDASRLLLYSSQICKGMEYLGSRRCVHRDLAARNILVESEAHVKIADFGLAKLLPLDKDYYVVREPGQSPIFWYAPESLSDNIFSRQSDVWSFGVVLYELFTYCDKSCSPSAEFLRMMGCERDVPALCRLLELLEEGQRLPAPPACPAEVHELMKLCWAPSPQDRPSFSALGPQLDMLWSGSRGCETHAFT

SMILES: [2H]C([2H])([2H])NC(=O)c1nnc(NC(=O)C2CC2)cc1Nc1cccc(-c2ncn(C)n2)c1OC [BMS-986165, Deucravacitinib, reference compound]
AUC [1]: 1312 ngh/mL
Cmax [1]: 222 ng/mL
F [1]: 35.5%
T1/2 [1]: 6.21 h
GI50 (JAK2): > 1000 nM
Solubility ([2]; pH 7, water, read-out: Solubility): 8.2 µg/mL (≈ 19.3 µM)
AUC [3]: 2804 ngh/mL
F [3]: 28.5%
Cmax ([3]; male, SD, rat, plasma): 229 ng/mL
MRT ([3]; male, SD, rat, plasma): 6.43 h
half-life ([3]; male, SD, rat, plasma): 221 min
GI50 (JAK3): > 1000 nM
IC50 [4]: 23.2 nM

SMILES: CN=S(C)(=O)c1cc2c(Cl)c[nH]c2nc1Nc1cc(NC(=O)C2CC2)nnc1C(=O)NC (stereo not shown) [Example 32, 4-((3-chloro-5-(N,S-dimethylsulfoximino)-1H-pyrrolo[2,3-b]pyridin-6-yl)amino)-6-(cyclopropylamido)-N-methylpyridazine-3-carboxamide]
IC50 [4]: 16.1 nM
IC50 (TYK2): 0.62 nM

SMILES: CN=S(C)(=O)c1cc(C)c(N)nc1Nc1cc(NC(=O)C2CC2)nnc1C(=O)NC (stereo not shown) [Example 26, 4-((6-amino-3-(N,S-dimethylsulfoximino)-5-methylpyridin-2-yl)amino)-6-(cyclopropylcarboxamido)-N-methylpyridazine-3-carboxamide]
IC50 [4]: 9.4 nM

Second part, the molecule after the results:

IC50 [4]: 7.5 nM
IC50 (TYK2): 1.3 nM
SMILES: CN=S(C)(=O)c1cc(Br)c(N)nc1Nc1cc(NC(=O)C2CC2)nnc1C(=O)NC (stereo not shown) [Example 24, 4-((6-amino-5-bromo-3-(N,S-dimethylsulfoximino)pyridin-2-yl)amino)-6-(cyclopropylcarboxamido)-N-methylpyridazine-3-carboxamide]

IC50 [4]: 8.1 nM
IC50 (TYK2): 2 nM
SMILES: CN=S(C)(=O)c1cc(Cl)c(N)nc1Nc1cc(NC(=O)C2CC2)nnc1C(=O)NC (stereo not shown) [Example 23]

IC50 [4]: 18 nM
SMILES: CN=S(C)(=O)c1cc(C)cnc1Nc1cc(NC(=O)C2CC2)nnc1C(=O)NC (stereo not shown) [Example 15, 6-(cyclopropylcarboxamido)-4-((3-(N,S-dimethylsulfoximino)-5-methylpyridin-2-yl)amino)-N-methylpyridazine-3-carboxamide]

Solubility [2]: 47 µg/mL (≈ 103 µM)
SMILES: [2H]C([2H])([2H])NC(=O)c1nnc(NC(=O)C2CC2)cc1Nc1nc(N)c(Cl)cc1[S@@](C)(=O)=NC [Example 38]
